Key:
[1] = system: proteases; experiment: protease cleavage of cDAC made with cDLI; format: in vitro ADME; conditions: presence of proteases; cDAC of cDLI-6 variants
[2] = system: SK-BR-3 cells (HER2+); experiment: cell proliferation assay (CellTiter-Glo), SK-BR-3; format: cell-based; conditions: Homo sapiens, SK-BR-3, 120 h; cereblon degrader compound, 5 days; read-out: IC50 anti-proliferative
Description: (§1) The CellTiter-Glo® Luminescent Cell Viability Assay is a commercially available (Promega Corp., Madison, WI), homogeneous assay method based on the recombinant expression of Coleoptera luciferase (U.S. Pat. Nos. 5,583,024; 5,674,713; 5,700,670). This cell proliferation assay determines the number of viable cells in culture based on quantitation of the ATP present, an indicator of metabolically active cells (Crouch et al (1993) J. Immunol. Meth. 160:81-88; U.S. Pat. No. 6,602,677). The CellTiter-Glo® Assay was conducted in 96 well format, making it amenable to automated high-throughput screening (HTS) (Cree et al (1995) AntiCancer Drugs 6:398-404). […] Data can be recorded by luminometer or CCD camera imaging device. The luminescence output is expressed as relative light units (RLU). […]
(§2) Efficacy of the cDAC was measured by a cell proliferation assay employing the following protocol ([…] GLO™ Luminescent Cell Viability Assay, Promega Corp. Technical Bulletin TB288; Mendoza et al. (2002) Cancer Res. 62:5485-5488): • 1. […] The plate was incubated at room temperature for 5 minutes to stabilize the luminescence signal. • 8. Luminescence was recorded and reported in graphs as % activity where RLU (relative luminescence units) was normalized to controls (no antibody control minus no cell control). […]

[3] = system: KPL-4 cells (HER2+); experiment: cell proliferation assay (CellTiter-Glo), KPL-4; format: cell-based; conditions: KPL4, 120 h; cereblon degrader compound, 5 days; read-out: IC50 anti-proliferative
Description: as §1, §2

[4] = stability of cDLI under conjugation conditions; format: physicochemical; conditions: pH 8.5, 3 and 10 equivalents, 3 hours and overnight; LC/MS
[5] = cDLI stability in whole blood; format: in vitro ADME
[6] = reductive cleavage / release of lenalidomide in a model study; format: in vitro ADME; conditions: reduction
Description: The nitro group of para-nitrobenzyloxymethyl lenalidomide cDLI-7 was reduced to amine in a model study. […] The disulfide group of para-nitropyridyl disulfidemethyl lenalidomide cDLI-8 was reduced in a model study.

[7] = release of lenalidomide and hydrolysis of sulfonyl-thio cDLI; format: in vitro ADME; conditions: with and without methyl adjacent to the glutarimide nitrogen

Compound: 6-(2,5-dioxo-2,5-dihydro-1H-pyrrol-1-yl)-N-((2S)-1-(((2S)-1-((4-((2,6-dioxo-3-(1-oxoisoindolin-2-yl)piperidin-1-yl)methyl)phenyl)amino)-1-oxopropan-2-yl)amino)-3-methyl-1-oxobutan-2-yl)hexanamide [cDLI-6]
- cleavage by proteases (in words) [1]: failed to cleave in the presence of proteases

Compound: Cn1cc2c3c(c[nH]c3c1=O)CN(c1ncc(F)cc1F)c1cc(C(=O)NCCCCCCCNc3cccc4c3CN(C3CCC(=O)NC3=O)C4=O)c(CS(C)(=O)=O)cc1-2 (stereo not drawn) [cD-5, 4-(3,5-difluoropyridin-2-yl)-N-(7-((2-(2,6-dioxopiperidin-3-yl)-1-oxoisoindolin-4-yl)amino)heptyl)-10-methyl-7-((methylsulfonyl)methyl)-11-oxo-3,4,10,11-tetrahydro-1H-1,4,10-triazadibenzo[cd,f]azulene-6-carboxamide]
- IC50 [2]: 0.41 nM
- IC50 [3]: 0.65 nM

Compound: CC(C)(C)OC(=O)Nc1cccc2c1CN(C1CCC(=O)N(C(=O)OCC(C)(C)SS(C)(=O)=O)C1=O)C2=O (stereo not drawn) [cDLI-1, 2-methyl-2-((methylsulfonyl)thio)propyl 3-(4-((tert-butoxycarbonyl)amino)-1-oxoisoindolin-2-yl)-2,6-dioxopiperidine-1-carboxylate]
- stability under conjugation conditions (in words) [4]: too unstable under these conditions for conjugation

Compound: O=C1C=CC(=O)N1CCSN1C(=O)CCC(N2Cc3ccccc3C2=O)C1=O (stereo not drawn) [cDLI-4, 1-((2-(2,5-dioxo-2,5-dihydro-1H-pyrrol-1-yl)ethyl)thio)-3-(1-oxoisoindolin-2-yl)piperidine-2,6-dione]
- stability in whole blood (in words) [5]: not stable in whole blood

Compound: CC(CN1C(=O)C=CC1=O)SN1C(=O)CCC(N2Cc3ccccc3C2=O)C1=O (stereo not drawn) [cDLI-5, 1-((1-(2,5-dioxo-2,5-dihydro-1H-pyrrol-1-yl)propan-2-yl)thio)-3-(1-oxoisoindolin-2-yl)piperidine-2,6-dione]
- stability in whole blood (in words) [5]: not stable in whole blood

Compound: O=C1CCC(N2Cc3ccccc3C2=O)C(=O)N1COCc1ccc([N+](=O)[O-])cc1 (stereo not drawn) [cDLI-7, 1-(((4-nitrobenzyl)oxy)methyl)-3-(1-oxoisoindolin-2-yl)piperidine-2,6-dione]
- cleavage to release lenalidomide (in words) [6]: No cleavage of the para-aminobenzyloxy group was observed

Compound: O=C1CCC(N2Cc3ccccc3C2=O)C(=O)N1CSSc1ccc([N+](=O)[O-])cn1 (stereo not drawn) [cDLI-8, 1-(((5-nitropyridin-2-yl)disulfaneyl)methyl)-3-(1-oxoisoindolin-2-yl)piperidine-2,6-dione]
- cleavage to release lenalidomide (in words) [6]: No cleavage of the disulfide group was observed

Compound: CC(OC(=O)OCN1C(=O)CCC(N2Cc3ccccc3C2=O)C1=O)C(C)SS(C)(=O)=O (stereo not drawn) [cDLI-9, S-(3-((((2,6-dioxo-3-(1-oxoisoindolin-2-yl)piperidin-1-yl)methoxy)carbonyl)oxy)butan-2-yl)methanesulfonothioate]
- stability under conjugation conditions (in words) [4]: Hydrolysis of the carbonate bond was observed
- release of lenalidomide (in words) [7]: cleaved to release detectable lenalidomide
- stability (in words) [7]: not stable, generating hydrolysis products

Compound: CC(C)(CSS(C)(=O)=O)OC(=O)OCN1C(=O)CCC(N2Cc3ccccc3C2=O)C1=O (stereo not drawn) [cDLI-10, S-(2-((((2,6-dioxo-3-(1-oxoisoindolin-2-yl)piperidin-1-yl)methoxy)carbonyl)oxy)-2-methylpropyl) methanesulfonothioate]
- stability under conjugation conditions (in words) [4]: Hydrolysis of the carbonate bond was observed
